Assay results reported in US6756354B2, “Therapeutic compositions containing oligo (ethylene glycol)-terminated 1,2-dithiolanes and their conjugates” (priority 2001, dated 2004).
Where a name gives a salt, the structure may show the parent alone.

Key:
[1] = oral; presystemic glucuronide conjugation; cited from earlier work
[2] = mouse

Compound: O=C(c1ccc(OCCN2CCCCC2)cc1)c1c(-c2ccc(O)cc2)sc2cc(O)ccc12 [Raloxifene, [6-hydroxy-2-(4-hydroixyphenyl)benzo[b]thien-3-yl]-4-[2-(1-piperidinyl)ethoxy]phenyl]methanone hydrochloride]
- absolute bioavailability [1]: about 2%

Compound: OEG-terminated 1,2-dithiolane-conjugated insulin: insulin conjugated at lysine-29 of the beta-chain with NHS-ester of carboxyl-OEG-terminated thioctamide (x is 8)
- oral bioavailability (concluded from glucose reduction) ([2]; in vivo, po): orally bioavailable
- serum glucose ([2]; oral gavage, 10 mg/mL solution, 10 mL/kg dose): reduction
